Assay results as given in ChEMBL document CHEMBL1201862, “PubChem BioAssay data set” (2004).
Active and inactive are the calls of the source.

How the values were obtained:
[1] = Fluorescence polarization-based biochemical high throughput dose response assay for activators of the Protein Kinase A-R1A (PKA-R1A) complex. [Related pubchem assays (depositor defined):AID504704, AID504707, AID504799, AID504800]
[2] = Fluorescence polarization-based biochemical high throughput dose response assay for activators of the Protein Kinase A-R2B (PKA-R2B) complex. [Related pubchem assays (depositor defined):AID504700, AID504704, AID504796, AID504797]
[3] = target: Voltage-gated inwardly rectifying potassium channel KCNH2 (Homo sapiens, UniProt Q12809); settings: Potency;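 note: confirmatory quantitative high-throughput screen measuring inhibition of hERG channel activity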
A-375 = test: MITF: Counter assay: A375 proliferation Measured in Cell-Based System Using Plate Reader - 2084-03_Inhibitor_Dose_DryPowder_Activity. [Related pubchem assays (depositor defined):AID488944]; assay type: functional; settings: Homo sapiens
[4] = target: T1, Microphthalmia-associated transcription factor (Homo sapiens, UniProt O75030); test: TRPM1 promoter luciferase signal decrease, dose response, MITF inhibitor project, cell-based, SK-MEL-5, cherry-picked, set 3 (AID 493073); assay type: functional
T1 sequence (O75030 whole entry): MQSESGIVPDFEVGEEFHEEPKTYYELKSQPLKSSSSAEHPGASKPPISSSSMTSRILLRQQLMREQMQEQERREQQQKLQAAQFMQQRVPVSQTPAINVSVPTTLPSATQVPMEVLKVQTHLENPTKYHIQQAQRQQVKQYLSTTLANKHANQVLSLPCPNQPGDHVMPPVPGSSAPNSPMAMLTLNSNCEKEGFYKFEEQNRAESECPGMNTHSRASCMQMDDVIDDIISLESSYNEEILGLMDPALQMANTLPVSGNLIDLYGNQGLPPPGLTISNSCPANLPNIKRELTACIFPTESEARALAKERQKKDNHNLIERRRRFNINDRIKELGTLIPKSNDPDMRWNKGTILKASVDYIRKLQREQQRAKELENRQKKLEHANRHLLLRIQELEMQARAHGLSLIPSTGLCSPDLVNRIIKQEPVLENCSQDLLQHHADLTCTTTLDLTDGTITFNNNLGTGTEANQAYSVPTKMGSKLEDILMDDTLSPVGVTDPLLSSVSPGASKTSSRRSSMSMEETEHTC

[5] = target: T2, Ubiquitin-conjugating enzyme E2 N (Homo sapiens, UniProt P61088); assay type: functional;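 note: Dose-response confirmation in a TR-FRET assay detecting UBC13-driven polyubiquitin chain formation, inhibition measured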
T2 sequence (P61088 whole entry): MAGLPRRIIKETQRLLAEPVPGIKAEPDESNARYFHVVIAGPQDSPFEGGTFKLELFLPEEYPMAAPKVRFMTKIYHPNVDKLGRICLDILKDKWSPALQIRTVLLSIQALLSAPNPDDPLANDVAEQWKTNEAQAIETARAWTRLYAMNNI

[6] = growth suppression of PTEN-null colon cells, dose response, cell-based, HCT116 PTEN knockout (AID 1047); assay type: functional;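 note: HCT116 colon tumor cells with PTEN knocked out; cells exposed to compound for 60 hours before readout; potency for loss of cell viability measured by luminescence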
[7] = growth suppression of beta-catenin-knockout colon cells, dose response, cell-based, HCT116, human colon tumor (AID 1045); assay type: functional;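 note: HCT116 colon tumor cells with beta catenin knocked out; cells exposed to compound for 60 hours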
HEK293 [8] = test: cells; settings: Homo sapiens
HEK293 [9] = test: cells; settings: Homo sapiens; remark: listed apart in the source
Beta-galactosidase = Beta-galactosidase (Escherichia coli, UniProt Q8VNN2); test: beta-galactosidase enzyme inhibitors and activators, dose response, artefact control for CCR6 antagonist project, biochemical, E. coli enzyme, set 3 (AID 504712); assay type: functional
[10] = target: T3, Polyadenylate-binding protein 1 (Homo sapiens, UniProt P11940); test: PABP1 MLLE–PAM2 binding inhibitor potency, dose response, biochemical, fluorescence polarization, FITC-PAM2 peptide (AID 602259); assay type: functional; settings: read-out: IC50_Mean
[11] = target: T3, Polyadenylate-binding protein 1; test: PABP1 MLLE–PAM2 interaction inhibitors, dose response, miRNA deadenylation inhibitor project, biochemical, fluorescence polarization, Cy5-PAM2 peptide, secondary (AID 602260); assay type: functional; settings: read-out: IC50_Mean

T3 sequence (P11940 whole entry): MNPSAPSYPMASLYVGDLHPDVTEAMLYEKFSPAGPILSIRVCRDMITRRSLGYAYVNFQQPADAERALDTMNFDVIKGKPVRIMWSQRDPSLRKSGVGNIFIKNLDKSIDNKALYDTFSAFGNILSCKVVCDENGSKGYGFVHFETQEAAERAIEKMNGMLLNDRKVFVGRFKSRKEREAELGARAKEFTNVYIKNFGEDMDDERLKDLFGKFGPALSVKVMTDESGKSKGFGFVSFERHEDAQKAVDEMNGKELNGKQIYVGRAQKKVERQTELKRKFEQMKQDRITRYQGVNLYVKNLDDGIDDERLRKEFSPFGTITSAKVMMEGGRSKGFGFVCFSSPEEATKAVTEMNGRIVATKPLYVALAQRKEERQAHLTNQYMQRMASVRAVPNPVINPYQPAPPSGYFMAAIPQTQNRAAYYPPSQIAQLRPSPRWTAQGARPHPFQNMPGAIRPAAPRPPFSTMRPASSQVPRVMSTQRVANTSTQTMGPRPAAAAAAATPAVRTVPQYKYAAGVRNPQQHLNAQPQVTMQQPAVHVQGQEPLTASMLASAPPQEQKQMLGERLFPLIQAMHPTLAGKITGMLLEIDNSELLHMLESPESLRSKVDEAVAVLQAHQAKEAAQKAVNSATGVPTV
Sequence of Beta-galactosidase (Q8VNN2 whole entry): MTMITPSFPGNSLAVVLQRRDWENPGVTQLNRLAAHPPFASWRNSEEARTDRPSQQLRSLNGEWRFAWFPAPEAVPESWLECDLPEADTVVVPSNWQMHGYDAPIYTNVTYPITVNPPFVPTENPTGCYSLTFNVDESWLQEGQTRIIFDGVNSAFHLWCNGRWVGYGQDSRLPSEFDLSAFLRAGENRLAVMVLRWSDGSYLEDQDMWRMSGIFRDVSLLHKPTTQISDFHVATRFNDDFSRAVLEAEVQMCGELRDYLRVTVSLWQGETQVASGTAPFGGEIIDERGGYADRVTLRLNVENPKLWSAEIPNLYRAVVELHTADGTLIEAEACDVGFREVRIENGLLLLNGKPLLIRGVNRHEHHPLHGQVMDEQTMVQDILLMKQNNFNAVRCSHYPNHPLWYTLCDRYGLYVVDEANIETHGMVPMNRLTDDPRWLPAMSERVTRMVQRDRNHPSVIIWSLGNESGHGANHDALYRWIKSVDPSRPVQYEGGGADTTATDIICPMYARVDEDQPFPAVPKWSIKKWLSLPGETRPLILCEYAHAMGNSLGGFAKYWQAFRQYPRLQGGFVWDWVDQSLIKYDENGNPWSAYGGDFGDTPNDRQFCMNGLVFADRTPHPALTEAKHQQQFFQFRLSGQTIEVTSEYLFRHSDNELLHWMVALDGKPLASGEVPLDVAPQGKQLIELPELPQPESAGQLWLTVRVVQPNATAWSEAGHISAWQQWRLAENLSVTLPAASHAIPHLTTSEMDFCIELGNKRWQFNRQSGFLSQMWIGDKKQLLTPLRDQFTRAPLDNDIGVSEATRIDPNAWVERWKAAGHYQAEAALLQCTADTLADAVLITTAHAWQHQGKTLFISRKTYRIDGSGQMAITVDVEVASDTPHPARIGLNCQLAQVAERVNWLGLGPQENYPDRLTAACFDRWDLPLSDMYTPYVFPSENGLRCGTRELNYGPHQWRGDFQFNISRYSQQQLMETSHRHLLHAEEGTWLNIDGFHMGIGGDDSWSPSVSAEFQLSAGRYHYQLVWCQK
Sequence of Voltage-gated inwardly rectifying potassium channel KCNH2 (Q12809 whole entry): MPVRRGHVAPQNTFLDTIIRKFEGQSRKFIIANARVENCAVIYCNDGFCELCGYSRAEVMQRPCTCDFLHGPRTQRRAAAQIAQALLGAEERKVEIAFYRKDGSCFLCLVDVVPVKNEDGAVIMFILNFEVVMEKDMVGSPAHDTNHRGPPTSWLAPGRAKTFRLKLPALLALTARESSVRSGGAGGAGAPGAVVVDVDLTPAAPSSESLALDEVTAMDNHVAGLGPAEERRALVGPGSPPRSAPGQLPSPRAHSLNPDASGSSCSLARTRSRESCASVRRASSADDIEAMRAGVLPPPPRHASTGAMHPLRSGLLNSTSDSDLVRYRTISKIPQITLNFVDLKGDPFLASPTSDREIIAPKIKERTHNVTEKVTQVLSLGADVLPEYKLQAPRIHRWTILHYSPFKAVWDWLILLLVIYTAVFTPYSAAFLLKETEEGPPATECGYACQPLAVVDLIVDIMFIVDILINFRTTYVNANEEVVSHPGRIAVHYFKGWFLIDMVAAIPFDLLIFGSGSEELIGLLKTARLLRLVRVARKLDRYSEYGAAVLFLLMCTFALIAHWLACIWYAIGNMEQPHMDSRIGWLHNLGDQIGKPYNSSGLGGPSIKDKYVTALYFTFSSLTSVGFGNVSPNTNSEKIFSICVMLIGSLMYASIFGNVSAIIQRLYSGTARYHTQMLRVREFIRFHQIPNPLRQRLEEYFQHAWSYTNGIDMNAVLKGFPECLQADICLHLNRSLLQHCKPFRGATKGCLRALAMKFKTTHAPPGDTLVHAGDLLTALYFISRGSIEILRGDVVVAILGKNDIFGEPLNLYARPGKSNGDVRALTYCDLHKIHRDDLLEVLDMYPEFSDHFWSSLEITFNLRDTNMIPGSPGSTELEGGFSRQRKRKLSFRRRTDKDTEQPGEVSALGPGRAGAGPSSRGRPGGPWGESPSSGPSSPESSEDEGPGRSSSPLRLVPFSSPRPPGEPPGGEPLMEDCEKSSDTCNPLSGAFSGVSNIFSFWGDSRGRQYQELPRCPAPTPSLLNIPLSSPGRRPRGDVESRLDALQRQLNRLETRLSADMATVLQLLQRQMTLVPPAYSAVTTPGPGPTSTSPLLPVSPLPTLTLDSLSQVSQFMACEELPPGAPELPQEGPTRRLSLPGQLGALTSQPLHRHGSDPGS

For `CCCC(=O)Nc1ncnc2c1ncn2[C@@H]1O[C@@H]2COP(=O)(O)O[C@H]2[C@H]1OC(=O)CCC`, which EC50 [1] is on record?
Its EC50 is 12.3 µM (inactive).

And the EC50 [2]?
The EC50 was 11.7 µM (inactive).

With `C/C=C(/C)C(=O)O[C@H]1C(C)=C2[C@H]([C@@H]1OC(=O)CCCCCCC)[C@@](C)(OC(C)=O)C[C@@H](OC(=O)CCC)[C@@]1(O)[C@H]2OC(=O)[C@@]1(C)O` as the molecule, how does the AC50 [3] read?
Its AC50 is 22.4 µM (inconclusive).

Which AC50 (A-375) does the source give for `COc1ccc(-c2nn(-c3ccccc3)cc2/C=N/N=C(N)N)cc1OC` here?
The AC50 was 17.4 µM (active).

And the AC50 [4]?
The AC50 was 14.6 µM (active).

What about the IC50 [5] of the same molecule?
The IC50 was > 20 µM (inactive).

And the EC50 [6]?
The EC50 was 4.55 µM (active).

And the EC50 [7]?
Its EC50 is 4.78 µM (active).

Which EC50 (HEK293 [8]) does the source give for `CN(C)CCCN1C(=O)c2cccc3c([N+](=O)[O-])ccc(c23)C1=O` here?
The EC50 was > 59.6 µM (inactive).

What about the EC50 (HEK293 [9]) of the same molecule?
The EC50 was > 59.6 µM (inactive).

What about the IC50 (Beta-galactosidase) of the same molecule?
The IC50 was > 66.6 µM (inactive).

What about the IC50 [10] of the same molecule?
The IC50 was 60.1 µM (inactive).

And the IC50 [11]?
Its IC50 is > 66 µM (inactive).
